# Results published in article PMC4932538, “Alkanediamide-Linked Bisbenzamidines Are Promising Antiparasitic Agents” (Pharmaceuticals, 2016).
# Entries after “also recorded” stand apart in the source; their conditions may differ. Where two headings read alike, the source gives them in different places.
# Columns and labels:
# [1] = system: T. b. brucei Lab 110 EATRO (pentamidine-sensitive); experiment: In vitro antitrypanosomal activity, T.b. brucei Lab 110 EATRO; assay type: cell-based, Trypanosoma brucei brucei; settings: Table S1, from IC50 of Table 1; for IC50: Trypanosoma brucei, read-out: pIC50 T.b. brucei (converted)
# Protocol: The in vitro assays with the two isolates of T. brucei were conducted according to previously described procedures [14].
# [2] = system: T. b. rhodesiense KETRi 243 (melarsoprol, pentamidine- and diminazene diaceturate-resistant); experiment: In vitro antitrypanosomal activity, T.b. rhodesiense KETRI 243; assay type: cell-based, Trypanosoma brucei rhodesiense; settings: Table S1, from IC50 of Table 1; for IC50: Trypanosoma brucei, RHODESIENSE, read-out: pIC50 T.b. rhod (converted)
# Protocol: (§5) The anti-T. cruzi activity was determined using intracellular amastigote forms of T. cruzi Tulahuen strain C2C4 in rat skeletal myoblasts (L6 cells) as described previously [24]. The anti-L. donovani activity was determined using the amastigotes of L. donovani strain MHOM-ET-67/L82 as described previously [24]. […] The cytotoxicity assays against rat skeletal myoblast L6-cells were performed as described previously [24].
# [3] = system: intracellular amastigote forms of T. cruzi Tulahuen strain C2C4 in rat skeletal myoblasts (L6 cells); experiment: In vitro anti-T. cruzi activity; assay type: cell-based, Trypanosoma cruzi; settings: for IC50: average of at least two determinations
# Protocol: as §5
# [4] = system: amastigotes of L. donovani strain MHOM-ET-67/L82; experiment: In vitro anti-L. donovani activity; assay type: cell-based, Leishmania donovani; settings: for IC50: average of at least two determinations
# Protocol: as §5
# [5] = system: P. falciparum K1 (chloroquine-resistant); experiment: In vitro anti-plasmodial activity, K1; assay type: cell-based, Plasmodium falciparum
# Protocol: as §5
# [6] = system: rat skeletal myoblast L6-cells; experiment: Cytotoxicity against L6 cells; assay type: cell-based
# Protocol: as §5
# poly(dA-dT) = experiment: DNA thermal melting with poly(dA-dT); assay type: binding; settings: 1:5 compound to DNA base pair ratio; mean of at least two determinations
# Protocol: (§1) In addition to the determination of the potency of the synthesized compounds against different strains of cell lines (Table 1), thermal melting experiments of these compounds were also conducted with poly(dA-dT) and calf thymus DNA (Table S1, supplementary file). […] The weaker binding to DNA (lower ΔTm values) compared to pentamidine might be attributed to the lower lipophilicity and higher PSA properties of these compounds since they would be expected to bind less favorably in the less polar environment of the minor grove of DNA as was reported for the aza-analogues of furamidine. […] Therefore, ability of these compounds to act at other potential targets cannot be ruled out.
# (§2) The DNA binding affinity of the tested compounds was determined by measuring the change in mid-point of the thermal denaturation curves for a 1:5 compound to DNA base pair ratio as described previously. Each Tm value reported in Table S1 (supplementary file) represents the mean of at least two experimental determinations.
# calf thymus DNA = experiment: DNA thermal melting with calf thymus DNA; assay type: binding; settings: 1:5 compound to DNA base pair ratio; mean of at least two determinations
# Protocol: as §1, §2
# [7] = system: T. b. brucei Lab 110 EATRO (pentamidine-sensitive); parameters: method as in PMID 19736009; settings: strain Lab 110; average of at least two determinations; cited from earlier work
# [8] = system: T. b. rhodesiense KETRi 243 (melarsoprol, pentamidine- and diminazene diaceturate-resistant); parameters: method as in PMID 19736009; settings: strain KETRI 243; average of at least two determinations; read-out: IC50 T.b. rhod; cited from earlier work
# [9] = system: P. falciparum NF54 (chloroquine-sensitive); experiment: In vitro anti-plasmodial activity, NF54; assay type: cell-based, Plasmodium falciparum
# [10] = system: T.b. brucei Lab 110 EATRO; experiment: In vivo trypanocidal activity in mice, Lab 110 EATRO; settings: for Mean Survival: 1.0, 2.5, 5, 10 mg/kg/day i.p. for 3 days (all doses)
# Protocol: (§3) The compounds were administered via the intraperitoneal route at doses ranging from 1.0 mg/kg/day to 25.0 mg/kg/day for 3 days unless otherwise noted. Pentamidine was used as the reference compound. All three of the tested compounds were effective in curing mice infected with the Lab 110 EATRO or KETRI 2002 strains at several doses.
# (§4) The in vivo studies were conducted according to the procedures described previously.
# [11] = system: T.b. rhodesiense KETRI 2002; experiment: In vivo trypanocidal activity in mice, KETRI 2002; settings: for Mean Survival: KETRI 2002
# Protocol: as §3, §4
# [12] = system: T.b. rhodesiense KETRI 2538; experiment: In vivo trypanocidal activity in mice, KETRI 2538; settings: KETRI 2538; 1.0, 5, 10 mg/kg/day i.p. for 3 days (all doses)
# Protocol: as §3, §4
# [13] = system: T.b. rhodesiense KETRI 1992; experiment: In vivo trypanocidal activity in mice, KETRI 1992; settings: for Mean Survival: KETRI 1992
# [14] = system: both strains of P. falciparum; experiment: In vitro activity and selectivity, both strains of P. falciparum; assay type: cell-based, Plasmodium falciparum
# Protocol: The selectivity index of these compounds for T. brucei (SIT.b) or P. falciparum (SIP.f) are defined as the ratio of the L6 cells IC50 to the T. brucei or P. falciparum IC50 values.
# The in vitro assays with the two isolates of T. brucei were conducted according to previously described procedures [14]. […] The cytotoxicity assays against rat skeletal myoblast L6-cells were performed as described previously [24].
# [15] = chloroquine-resistant strain, read-out: IC50 P. falcip K1
# [16] = cytotoxicity, read-out: IC50 L6 Cells
# [17] = chloroquine-sensitive strain, read-out: IC50 P. falcip NF54
# [18] = Plasmodium falciparum, K1, Table S1, from IC50 of Table 1, read-out: pIC50 P. falcip K1 (converted)
# [19] = Trypanosoma cruzi, TULAHUEN, L6
# [20] = Plasmodium falciparum, K1, chloroquine-resistant strain, read-out: IC50 P. falcip K1
# [21] = Rattus norvegicus, L6, cytotoxicity, read-out: IC50 L6 Cells
Compound,pIC50 T.b. brucei [1],pIC50 T.b. rhod [2],IC50 [3],IC50 [4],"pIC50 P. falcip K1 ([5]; Table S1, from IC50 of Table 1)","IC50 [5, 15]","IC50 [6, 16]",Thermal Melting ΔTm Poly(dA-dT) (poly(dA-dT)),Thermal Melting ΔTm CT-DNA (calf thymus DNA),IC50 [7],IC50 [8],"IC50 [9, 17]",further results
"N,N′-bis[4-(aminoiminomethyl)phenyl] butane-1,4-dicarboxamide [Compound 2]",5.046,5.660,> 100000 nM,> 100000 nM,6.538,290 nM,28000 nM,11.5 C,8.1 C,9000 nM,2190 nM,,
"N,N′-bis[4-(aminoiminomethyl)phenyl] nonane-1,9-dicarboxamide [Compound 13]",6.398,6.620,99500 nM,67400 nM,8.097,8 nM,49200 nM,7.5 C,4.6 C,400 nM,240 nM,2 nM,
"N=C(N)c1ccc(OCCCCCOc2ccc(C(=N)N)cc2)cc1 [Pentamidine, pentamidine, reference compound]",,,,,,,,21.6 C,11.6 C,,2 nM,,"IC50 [1]: 2 nM; IC50 [2]: 2 nM; IC50 [5, 18]: 180 nM; Mean Survival [10]: >30 days; Mean Survival ([11]; 1.0, 5, 10 mg/kg/day i.p. for 3 days (all doses)): >30 days; Mean Survival [12]: >30 days; Mean Survival ([13]; 1 mg/kg/day i.p. for 3 days): 12.6 days; Mean Survival ([13]; 5 mg/kg/day i.p. for 3 days): 17.0 days; Mean Survival ([13]; 10 mg/kg/day i.p. for 3 days): 22.2 days; curing of infected mice ([13]; drug-resistant KETRI 1992, i.p., 3 days): ineffective"
"N,N′-bis[4-(aminoiminomethyl)phenyl] heptane-1,7-dicarboxamide [Compound 11]",8.699,8.699,> 100000 nM,> 100000 nM,8.699,2 nM,43000 nM,10.7 C,6.4 C,2 nM,2 nM,2 nM,"Mean Survival [10]: >30 days; curing of infected mice ([10]; i.p., 3 days): the most effective; also recorded: highly effective; curing of infected mice ([11]; KETRI 2002, i.p., 3 days): the most effective; also recorded: highly effective; Mean Survival ([11]; 1.0, 2.5, 5, 10 mg/kg/day i.p. for 3 days (all doses)): >30 days"
N=C(N)c1ccc(NC(=O)CCCCCCCCC(=O)Nc2ccc(C(=N)N)cc2)cc1 [Compound 14],8.699,8.398,76400 nM,68500 nM,7.921,12 nM,78600 nM,10.0 C,6.6 C,2 nM,4 nM,14 nM,
"O=C(Cn1ccnc1[N+](=O)[O-])NCc1ccccc1 [benznidazole, reference compound]",,,,,,,,,,,,,"IC50 [3, 19]: 1130 nM"
"COc1cc([C@@H]2c3cc4c(cc3[C@H](O)[C@H]3COC(=O)[C@H]23)OCO4)cc(OC)c1OC [podophyllotoxin, reference compound]",,,,,,,,,,,,,"IC50 ([6]; Rattus norvegicus, L6, read-out: IC50 L6 Cells): 10 nM"
"N,N′-bis[4-(aminoiminomethyl)phenyl] ethane-1,2-dicarboxamide [Compound 1]",,,> 100000 nM,> 100000 nM,8.523,3 nM,> 100000 nM,,,,,8 nM,"activity against T. cruzi ([3]; in vitro): inactive; activity against L. donovani ([4]; in vitro): inactive; IC50 ([14]; range over NF54 and K1, read-out: IC50 against both strains of P. falciparum): 3 to 8 nM; selectivity index for P. falciparum (SIP.f) ([14]; ratio of the L6 cells IC50 to the P. falciparum IC50): > 33,000"
"CCN(CC)CCCC(C)Nc1ccnc2cc(Cl)ccc12 (stereo not shown) [chloroquine, reference compound]",,,,,,,,,,,,,"IC50 ([9]; Plasmodium falciparum, NF54, read-out: IC50 P. falcip NF54): 6 nM; IC50 ([5]; Plasmodium falciparum, K1, read-out: IC50 P. falcip K1): 180 nM"
"N,N′-bis[4-(aminoiminomethyl)phenyl] dodecane-1,12-dicarboxamide [Compound 15]",8.097,8.155,80900 nM,10700 nM,7.824,15 nM,80200 nM,8.5 C,,8 nM,7 nM,32 nM,
N=C(N)c1ccc(NC(=O)CCCCC(=O)Nc2cccc(C(=N)N)c2)cc1 [Compound 10],7.921,8.155,> 100000 nM,> 100000 nM,8.398,4 nM,> 100000 nM,,,12 nM,7 nM,15 nM,
N=C(N)c1cccc(NC(=O)CCCCC(=O)Nc2cccc(C(=N)N)c2)c1 [Compound 7],7.387,7.678,> 100000 nM,> 100000 nM,6.420,380 nM,> 100000 nM,13.8 C,,41 nM,21 nM,,
NC(=O)c1cccc(NC(=O)CCCCC(=O)Nc2cccc(C(N)=O)c2)c1 [Compound 9],,,,,,,,0.0 C,,,1970 nM,,"IC50 [2]: 1970 nM; IC50 [3, 19]: > 100000 nM; IC50 ([4]; Leishmania donovani): > 100000 nM; IC50 [5, 20]: > 100000 nM; IC50 [6, 21]: 46400 nM"
NC(=O)c1ccc(NC(=O)CCCCC(=O)Nc2ccc(C(N)=O)cc2)cc1 [Compound 8],,,,,,,,0.0 C,,2800 nM,1100 nM,,"IC50 [1]: 2800 nM; IC50 [2]: 1100 nM; IC50 [3, 19]: > 100000 nM; IC50 ([4]; Leishmania donovani): > 100000 nM; IC50 [5, 20]: > 100000 nM; IC50 [6, 21]: > 100000 nM"
N#Cc1ccc(NC(=O)CCCC(=O)Nc2ccc(C#N)cc2)cc1 [Compound 3],,,,,,,,0.15 C,−0.2 C,6500 nM,7900 nM,,"IC50 [1]: 6500 nM; IC50 [2]: 7910 nM; IC50 [3, 19]: > 100000 nM; IC50 ([4]; Leishmania donovani): > 100000 nM; IC50 [5, 18]: 44800 nM; IC50 [5, 20]: 44800 nM; IC50 [6, 21]: > 100000 nM"
N=C(N)c1ccc(NC(=O)CCCCCCC(=O)Nc2ccc(C(=N)N)cc2)cc1 [Compound 12],8.523,9.000,> 100000 nM,> 100000 nM,8.222,6 nM,38400 nM,13.2 C,7.1 C,3 nM,1 nM,2 nM,
